What was measured:
intestinal bacteria = settings: humans, 3 g daily dose; cited from earlier work
[1] = Clinical study in GERD patients: symptom severity (pyrosis, regurgitation) on Likert scale; format: in vivo, human; settings: n = 10; for medium term arresting pyrosis / medium term arresting regurgitation: oral, 2 times a day for 56 days
[2] = Clinical study in GERD patients: tolerability (diarrhea, flatulence, AE necessitating discontinuation); format: in vivo, human; settings: n = 10
Text: (§1) The study included 100 patients with endoscopically negative GERD form, i.e. men and women aged 19 to 50 years old infected with H. pilori.
All the patients were divided into 10 groups of 10 persons each, of whom 5 groups (I-V) were experimental ones, while 5 groups (VI-X) were control ones.
In the experimental groups patients received orally the claimed dosage forms based on PPI and a prebiotic; Group I—a composition which contained omeprazole and lactulose as active components; Group II—a composition which contained pantoprazole and lactitol as active components; Group III—a composition which contained lansoprazole and inulin as active components; Group IV—a composition which contained rabeprazole and fructooligosaccharides as active components; Group V—a composition which contained esomeprazole and lactulose as active components.
In the control groups the patients received PPI monotherapy orally: Group VI—omeprazole; Group VII—pantoprazole; Group VIII—lansoprazole; Group IX—rabeprazole and Group X—esomeprazole.
(§2) All the patients received treatment on a similar pattern: they received the composition of a proton pump inhibitor and a prebiotic 2 times a day for 56 days.
The patients kept their diaries in which they made daily records of the time when they took drugs, recorded disease symptom severity according to Likert scale, severity of meteorism, defecation frequency, etc.
(§3) Repeated visits were made in 2 and 5 weeks after the treatment start; during the visits treatment efficacy and safety were determined, besides, it was determined if the therapy could be continued. In 56 days (8 weeks) after the therapy start, the patient came to a visit, wherein efficacy and safety of treatment was evaluated and the treatment was terminated. In 11 weeks after the treatment start, the final visit was made which included esophagogastroduodenoscopy with byopsy of the antrum and the gastric corpus for HP detection.

[3] = Clinical study in GERD patients: hydrogen breathing test for bacterial overgrowth syndrome; format: in vivo, human; settings: n = 10
Text: as §1, §2
Before and after treatment course (on Day 56) all the patients were subjected to hydrogen breathing test on the presence of bacterial overgrowth syndrome.

Helicobacter pylori = assay: Clinical study in GERD patients: biopsy of antrum and gastric corpus for Helicobacter pylori (cytology/histology, urease test); format: in vivo, human; settings: n = 10
Text: as §1, §2
In all patients, before treatment and in 4 weeks (1 month) after completion of the treatment course the biopsy of the antrum and gastric corpus was made for the presence of Helicobacter pylori. For HP diagnostics the following was used:
1. Cytological and histological biopsy of mucosa of the antrum and gastric corpus obtained in gastroscopy.
2. Urease test, in which the mucous membrane biopsy material obtained from the antrum and the gastric corpus were examined for the presence of urease, an enzyme specific for Helicobacter pylori.
as §3

[4] = Clinical study in GERD patients: quality of life by Visual Analog Scale; format: in vivo, human; settings: n = 10
[5] = after treatment (oral, 2 times a day for 56 days)
[6] = after treatment, biopsy after completion of the 56-day course

Structure (SMILES) | Intensity pyrosis on scale Likert [1, 5] [ball] | Intensity regurgitation on scale Likert [1, 5] [ball] | Intensity pyrosis on scale Likert ([1]; before treatment) [ball] | Intensity regurgitation on scale Likert ([1]; before treatment) [ball] | medium term arresting pyrosis [1] [days] | medium term arresting regurgitation [1] [days] | AE, necessitating discontinuation of therapy ([2]; after treatment (56 days)) [%] | Presence diarrhea ([2]; after treatment (56 days)) [%] | Presence flatulence ([2]; after treatment (56 days)) [%] | Presence diarrhea ([2]; before treatment) [%] | Presence flatulence ([2]; before treatment) [%] | Presence bacterial overgrowth syndrome ([3]; after treatment (Day 56)) [%] | Presence bacterial overgrowth syndrome ([3]; before treatment) [%] | release Helicobacter pylori in the antrum (Helicobacter pylori; [6]) [%] | release Helicobacter pylori in the stomach (Helicobacter pylori; [6]) [%] | release Helicobacter pylori in the antrum (Helicobacter pylori; before treatment) [%] | release Helicobacter pylori in the stomach (Helicobacter pylori; before treatment) [%] | Quality of life no VAC ([4]; after treatment (56 days)) [MM] | Quality of life no VAC ([4]; before treatment) [MM] | also measured
OC[C@H]1O[C@@H](O[C@@H]2[C@@H](CO)OC(O)(CO)[C@H]2O)[C@H](O)[C@@H](O)[C@H]1O (mixture of isomers) [lactulose] |  |  |  |  |  |  |  |  |  |  |  |  |  |  |  |  |  |  |  | number of Bifidobacteria and Lactobacillus (intestinal bacteria): significant increase; number of Clostridium perfringens, Bacteroides, Enterobacteriaceae, and Streptococcus (intestinal bacteria): decrease
COc1ccc2nc([S@@+]([O-])Cc3ncc(C)c(OC)c3C)[nH]c2c1 [group X, esomeprazole] | 1.1 ± 0.2 | 1.3 ± 0.1 | 3.5 ± 0.9 | 3.6 ± 1.1 | 7.7 ± 3.1 | 7.2 ± 3.1 | 0 | 20 | 60 | 0 | 10 | 50 | 10 | 100 | 80 | 100 | 20 | 87.6 ± 21.2 | 58.1 ± 18.9 | 
COCCCOc1ccnc(C[S+]([O-])c2nc3ccccc3[nH]2)c1C (stereo not shown) [group IX, rabeprazole] | 1.2 ± 0.6 | 1.1 ± 0.3 | 3.6 ± 0.7 | 3.5 ± 1.1 | 7.8 ± 3.5 | 7.5 ± 3.4 | 0 | 20 | 50 | 0 | 20 | 40 | 10 | 100 | 80 | 100 | 20 | 87.3 ± 19.5 | 58.5 ± 20.2 | 
COc1ccc2[nH]c([S+]([O-])Cc3ncc(C)c(OC)c3C)nc2c1 (stereo not shown) [group VI, omeprazole] | 1.2 ± 0.6 | 1.1 ± 0.3 | 3.6 ± 0.8 | 3.5 ± 1.2 | 7.8 ± 3.5 | 7.5 ± 3.4 | 0 | 20 | 60 | 0 | 20 | 50 | 10 | 100 | 70 | 100 | 20 | 87.6 ± 21.2 | 58.1 ± 18.9 | 
COc1ccnc(C[S+]([O-])c2nc3ccc(OC(F)F)cc3[nH]2)c1OC (stereo not shown) [group VII, pantoprazole] | 1.0 ± 0.4 | 1.2 ± 0.3 | 3.3 ± 0.5 | 3.4 ± 1.1 | 7.5 ± 3.1 | 7.6 ± 3.4 | 0 | 20 | 50 | 0 | 10 | 40 | 10 | 100 | 80 | 100 | 20 | 87.6 ± 21.2 | 58.1 ± 18.9 | 
Cc1c(OCC(F)(F)F)ccnc1C[S+]([O-])c1nc2ccccc2[nH]1 (stereo not shown) [group VIII, lansoprazole] | 1.1 ± 0.5 | 1.1 ± 0.2 | 3.4 ± 0.7 | 3.6 ± 1.1 | 7.8 ± 3.3 | 7.7 ± 3.2 | 0 | 20 | 60 | 0 | 10 | 50 | 10 | 100 | 70 | 100 | 20 | 84.2 ± 21.5 | 57.4 ± 17.5 | 

Source: patent publication US20150202192A1, “PHARMACEUTICAL COMPOSITION FOR TREATING GASTRO-OESOPHAGEAL REFLUX DISEASE” (priority 2012, published 2015)
